{"source": "patent EP0261891A2", "about": "“Pharmaceutical compositions containing etiochiolandione” (Progenics, Inc., priority 1986, dated 1988)", "key": {"[1]": {"assay": "Second study: body weight gain and food consumption in rats on higher-fat diet with steroid", "format": "in vivo, Sprague-Dawley rats", "settings": "for FOOD CONSUMPTION: Av.Wks 1 - 4 (control 23.4)", "experimental": "A second study was carried out on male Sprague-Dawley rats with initial starting weight of 272 ± 5 gms. […] On the last day of the study the animals were dosed with approximately 1 micro Ci of ^3H labeled material (Amersham) corresponding to the treatment they had received. Groups of three animals- were sacrificed at 1 hour, 4 hours and 12 hours after dosing, and the adrenals, gonads, liver, epididymal fat pads, and blood collected for analysis. Urine and feces were also collected during the post-tracer dosing period."}, "[2]": {"assay": "Weight gain, food consumption, fat pad and alpha-ET blood level in normal rats fed steroid in diet for three weeks", "format": "in vivo, Sprague-Dawley rats", "settings": "for FOOD CONSUMPTION: 0.367% in diet (dose from method)", "experimental": "All of the above considerations make ET-dione not only suitable but preferred in the treatment of diabetes, obesity and blood suppressive disorders such as aplastic anemia.\nFood consumption and body weight were measured weekly. Blood samples were taken at the end of the study for assay of alpha-ET by RIA and measurement of serum total cholesterol, HDL-cholesterol and triglycerides. Liver weight (absolute and % of body weight), total cholesterol, % of esterified cholesterol and triglycerides in the liver were also determined. In addition, epididymal fat pad weights were measured."}, "[3]": {"assay": "Absorption and blood level profiles after oral suspensions, three-way crossover; serum alpha-ET by RIA", "format": "in vivo, human", "settings": "200 mg oral suspension, at 4 hours past administration", "quoted_text": "Each subject received all three drugs in randomized order with a one-week wash-out period between doses. Following an overnight fast, subjects received 200 mg of test drug suspended in approximately 6 oz of apple juice. Blood samples were drawn immediately prior to drug administration and at 15 minutes, 30 minutes, 1, 2, 4, 8, 12 and 24 hours."}, "[4]": {"settings": "injection (i.m.) in man; cited from earlier work"}, "[5]": {"settings": "compared with DHEA; cited from earlier work"}}, "note": "Where “and” joins values, the source holds several entries; their conditions need not be identical. Equal entries are not always repeated."}
{"smiles": "C[C@]12CCC(=O)C[C@H]1CC[C@@H]1[C@@H]2CC[C@]2(C)C(=O)CC[C@@H]12", "note": "[ET-dione, 5-beta-androstanedione]", "values": [{"measurement": "% W vs Control Day 28", "setting": "[1]; 0.4% in diet", "value": -18.6, "unit": "%"}, {"measurement": "FOOD CONSUMPTION", "setting": "[1]; 0.4% in diet", "value": 22.0, "unit": "g/day"}, {"measurement": "BODY WEIGHT GAINS", "setting": "[1]; 0.4% in diet, Day 7 (control 56)", "value": 44}, {"measurement": "BODY WEIGHT GAINS", "setting": "[1]; 0.4% in diet, Day 14 (control 109)", "value": 89}, {"measurement": "BODY WEIGHT GAINS", "setting": "[1]; 0.4% in diet, Day 21 (control 145)", "value": 117}, {"measurement": "BODY WEIGHT GAINS", "setting": "[1]; 0.4% in diet, Day 28 (control 183)", "value": 149}, {"measurement": "% W vs Control Day 28", "setting": "[1]; 0.8% in diet", "value": -21.3, "unit": "%"}, {"measurement": "FOOD CONSUMPTION", "setting": "[1]; 0.8% in diet", "value": 20.6, "unit": "g/day"}, {"measurement": "BODY WEIGHT GAINS", "setting": "[1]; 0.8% in diet, Day 7 (control 56)", "value": 34}, {"measurement": "BODY WEIGHT GAINS", "setting": "[1]; 0.8% in diet, Day 14 (control 109)", "value": 83}, {"measurement": "BODY WEIGHT GAINS", "setting": "[1]; 0.8% in diet, Day 21 (control 145)", "value": 112}, {"measurement": "BODY WEIGHT GAINS", "setting": "[1]; 0.8% in diet, Day 28 (control 183)", "value": 144}, {"measurement": "effectiveness in reducing weight gain compared with alpha-ET", "setting": "[1]; at all concentrations tested", "value": "almost twice as effective as alpha-ET"}, {"measurement": "% W vs Control Day 21", "setting": "[2]; 0.367% in diet", "value": -16.6, "unit": "%"}, {"measurement": "FOOD CONSUMPTION", "setting": "[2]; Average, mean ± S.E. (control 25.6 ± 0.6), significantly different from control (p < 0.05)", "value": "23.4 ± 0.6", "unit": "g/rat/day"}, {"measurement": "FOOD CONSUMPTION", "setting": "[2]; week 1, mean ± S.E. (control 26.8 ± 0.8)", "value": "23.0 ± 0.6", "unit": "g/rat/day"}, {"measurement": "FOOD CONSUMPTION", "setting": "[2]; week 2, mean ± S.E. (control 24.9 ± 0.6)", "value": "24.6 ± 0.5", "unit": "g/rat/day"}, {"measurement": "FOOD CONSUMPTION", "setting": "[2]; week 3, mean ± S.E. (control […] ± 0.6)", "value": "22.6 ± 0.5", "unit": "g/rat/day"}, {"measurement": "Weight", "setting": "[2]; 0.367% in diet, Day 0, mean ± S.E.", "value": "260 ± 3", "unit": "g"}, {"measurement": "W(g) (weight gain)", "setting": "[2]; 0.367% in diet, Day 7 (control 48)", "value": 38, "unit": "g"}, {"measurement": "Weight", "setting": "[2]; 0.367% in diet, Day 7, mean ± S.E. (control 308 ± 5)", "value": "298 ± 2", "unit": "g"}, {"measurement": "W(g) (weight gain)", "setting": "[2]; 0.367% in diet, Day 14 (control 94)", "value": 81, "unit": "g"}, {"measurement": "Weight", "setting": "[2]; 0.367% in diet, Day 14, mean ± S.E. (control 354 ± 6)", "value": "341 ± 3", "unit": "g"}, {"measurement": "W(g) (weight gain)", "setting": "[2]; 0.367% in diet, Day 21 (control 121), significantly different from control (p < .05)", "value": "101 g and 101+ g"}, {"measurement": "Weight", "setting": "[2]; 0.367% in diet, Day 21, mean ± S.E. (control 381 ± 7)", "value": "361 ± 3", "unit": "g"}, {"measurement": "Fat Pad as % of Body Wt", "setting": "[2]; 0.367% in diet, three weeks (control 1.02 ± 0.08)", "value": "0.97 ± 0.07", "unit": "%"}, {"measurement": "Fat Pad Wt", "setting": "[2]; epididymal fat pad, 0.367% in diet, three weeks (control 3.88 ± 0.29)", "value": "3.50 ± 0.26", "unit": "g"}, {"measurement": "free alpha-ET levels compared with alpha-ET or beta-ET administration", "setting": "[3]", "value": "significantly higher"}]}
{"smiles": "C[C@]12CC[C@H](O)C[C@H]1CC[C@@H]1[C@@H]2CC[C@]2(C)C(=O)CC[C@@H]12", "note": "[Beta-ET, 5-beta-androstan-3-beta-ol-17-one]", "values": [{"measurement": "pyrogenic effect", "setting": "[4]", "value": "little pyrogenic effect"}, {"measurement": "effectiveness in preventing the development of diabetes", "setting": "[5]", "value": "four times more effective than DHEA"}]}
